The record followed here is ChEMBL document CHEMBL1201862, “PubChem BioAssay data set” (2004).

The structures appear in SMILES notation. Activity calls are given as the source filed them.

For orientation: EC50 means the concentration giving half of the maximal effect.

The nature of experiment [1]: Luminescence Cell-Based Dose Response HTS to Identify Activators of Luciferase Translation or Activity in H4 […] Cells. [Related pubchem assays: 1829 (Project Summary), 1814 (Primary HTS)]. Type of experiment: functional.
Experiment [2] in a line: Trypanosoma cruzi growth suppression in host cells – NIH3T3 host cells, beta-gal luminescence, confirmation (AID 2044).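 Also: intracellular parasites grown in NIH/3T3 mouse fibroblasts as host cells; luminescent beta-galactosidase reporter signal from transgenic T. cruzi replicating inside host cells; inhibitors lower the luminescence signal.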 It is filed as functional, cell-based.
Experiment [3] can be described thus: Luminescence Cell-Based Dose Confirmation HTS to Identify Activators of 5'UTR Stem-Loop Driven Alpha-Synuclein mRNA Translation in H4 Neuroglioblastoma Cells. [Related pubchem assays: 1829 (Project Summary), 1814 (Primary HTS)]. Type of experiment: functional.
Experiment [4] is described as follows: A cytotoxicity screen of small molecule inhibitors of the PhoP region in Salmonella typhi identified in the primary screen. [Related pubchem assays: 1850, 1864, 1985 ]. Type of experiment: functional.
Experiment [5] in a line: Luminescence Cell Based Dose Confirmation HTS to Identify Activators of 5'UTR Stem-Loop Driven Alpha-Synuclein mRNA Translation in H4 Neuroglioblastoma Cells. [Related pubchem assays (depositor defined):AID1813, AID1829]. Type of experiment: functional. To be noted: Homo sapiens.
Experiment [6] concerns the target T1, Small ubiquitin-related modifier 2 (Homo sapiens, UniProt P61956). In words: disruption of SUMO2 interaction with SIM peptide – biochemical, fluorescence polarization, uHTS hits, selectivity assay for SUMO1 interaction inhibitor project, dose response (AID 624385). It is filed as functional. To be noted: read-out: IC50_Mean. In general terms: In fluorescence polarisation assays a small probe gives low polarisation when free and higher when bound to something large.

The target of the next experiment is Large T antigen (Simian virus 40, UniProt P03070). Type of experiment: functional, Betapolyomavirus macacae.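 Also: Confirmatory-stage PubChem screen for compounds that inhibit SV40 T antigen.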
Large T antigen, sequence (P03070 whole entry): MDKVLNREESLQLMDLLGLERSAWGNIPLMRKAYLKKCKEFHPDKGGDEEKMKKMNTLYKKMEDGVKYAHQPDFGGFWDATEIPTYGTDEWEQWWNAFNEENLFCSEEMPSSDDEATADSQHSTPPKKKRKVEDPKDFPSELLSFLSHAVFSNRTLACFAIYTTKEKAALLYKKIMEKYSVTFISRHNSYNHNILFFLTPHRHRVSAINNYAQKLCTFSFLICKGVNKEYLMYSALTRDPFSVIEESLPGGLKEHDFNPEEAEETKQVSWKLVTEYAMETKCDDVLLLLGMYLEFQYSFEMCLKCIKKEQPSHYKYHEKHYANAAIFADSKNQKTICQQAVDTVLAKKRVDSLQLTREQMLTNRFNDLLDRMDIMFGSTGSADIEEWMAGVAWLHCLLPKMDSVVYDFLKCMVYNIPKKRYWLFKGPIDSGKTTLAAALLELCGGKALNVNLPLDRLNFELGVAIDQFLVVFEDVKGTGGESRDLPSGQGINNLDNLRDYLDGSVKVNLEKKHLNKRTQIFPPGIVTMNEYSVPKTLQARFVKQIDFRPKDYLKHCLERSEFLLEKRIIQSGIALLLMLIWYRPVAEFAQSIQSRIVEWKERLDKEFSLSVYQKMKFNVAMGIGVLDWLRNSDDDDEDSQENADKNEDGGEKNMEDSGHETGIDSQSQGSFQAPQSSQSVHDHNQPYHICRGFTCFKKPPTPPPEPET
The target of the next experiment is T2, Streptokinase A (Streptococcus pyogenes serotype M1, UniProt P10520).
T2 sequence (P10520 whole entry): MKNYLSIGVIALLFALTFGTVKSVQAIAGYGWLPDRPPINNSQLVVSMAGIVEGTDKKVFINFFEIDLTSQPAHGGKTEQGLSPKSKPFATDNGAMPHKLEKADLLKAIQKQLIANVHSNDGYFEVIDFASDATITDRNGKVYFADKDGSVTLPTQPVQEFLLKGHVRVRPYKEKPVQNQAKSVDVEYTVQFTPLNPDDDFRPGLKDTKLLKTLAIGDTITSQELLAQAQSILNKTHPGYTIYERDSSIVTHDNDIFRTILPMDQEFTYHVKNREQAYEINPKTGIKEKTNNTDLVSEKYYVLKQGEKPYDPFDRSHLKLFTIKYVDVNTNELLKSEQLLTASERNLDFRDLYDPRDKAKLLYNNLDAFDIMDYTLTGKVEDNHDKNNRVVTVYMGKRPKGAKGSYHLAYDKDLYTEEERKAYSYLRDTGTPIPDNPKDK
Nature of the experiment: viability-normalized secreted streptokinase activity reduction – plasminogen activation absorbance, OD405, dose response (AID 1914).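 Also: secreted streptokinase activity via plasminogen activation per viability signal from cell pellet.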 It is filed as functional, Streptococcus pyogenes M1 GAS.

Experiment [7] addresses T1, Small ubiquitin-related modifier 2. In words: SUMO2 binding disruption by SUMO1 hits – biochemical, FRET, human SUMO2, uHTS hits, selectivity assay for SUMO1 interaction inhibitor project, dose response (AID 624384). To be noted: read-out: IC50_Mean. It is filed as functional.
Experiment [8] concerns the target T3, Sentrin-specific protease 8 (Homo sapiens, UniProt Q96LD8).
T3 sequence (Q96LD8 whole entry): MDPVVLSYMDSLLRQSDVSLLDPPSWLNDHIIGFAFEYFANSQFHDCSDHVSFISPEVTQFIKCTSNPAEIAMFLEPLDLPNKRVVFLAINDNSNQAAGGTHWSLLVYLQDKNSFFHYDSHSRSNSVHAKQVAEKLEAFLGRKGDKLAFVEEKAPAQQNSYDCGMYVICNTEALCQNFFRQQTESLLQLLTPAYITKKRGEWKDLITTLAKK
Type of experiment: functional.

Experiment [9] has as its target T3, Sentrin-specific protease 8. Type of experiment: functional. This is another data set of the same source.
The target in a further experiment is T4, Caspase-3 (Homo sapiens, UniProt P42574).
T4 sequence (P42574 whole entry): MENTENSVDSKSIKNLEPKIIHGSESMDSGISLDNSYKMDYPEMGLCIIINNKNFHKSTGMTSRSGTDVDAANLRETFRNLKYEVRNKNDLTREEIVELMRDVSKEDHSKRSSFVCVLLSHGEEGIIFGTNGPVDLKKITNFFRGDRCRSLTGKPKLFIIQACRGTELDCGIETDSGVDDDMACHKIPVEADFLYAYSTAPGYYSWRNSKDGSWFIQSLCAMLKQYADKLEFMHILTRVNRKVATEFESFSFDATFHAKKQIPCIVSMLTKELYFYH
Nature of the experiment: SAR Analysis of small molecule inhibitors of Sentrin-specific proteases (SENPs) using a Caspase-3 Selectivity assay. [Related pubchem assays (depositor defined):AID2540, AID2599, AID434973, AID489001]. Type of experiment: functional.

For experiment [10], the target named is T3, Sentrin-specific protease 8. In words: inhibition of human SENP8 cleavage activity – biochemical, luminescence, SAR follow-up (AID 504501). Type of experiment: functional.
Experiment [11] addresses T5, Bifunctional protein GlmU (Mycobacterium tuberculosis, UniProt P9WMN3).
T5 sequence (P9WMN3 whole entry): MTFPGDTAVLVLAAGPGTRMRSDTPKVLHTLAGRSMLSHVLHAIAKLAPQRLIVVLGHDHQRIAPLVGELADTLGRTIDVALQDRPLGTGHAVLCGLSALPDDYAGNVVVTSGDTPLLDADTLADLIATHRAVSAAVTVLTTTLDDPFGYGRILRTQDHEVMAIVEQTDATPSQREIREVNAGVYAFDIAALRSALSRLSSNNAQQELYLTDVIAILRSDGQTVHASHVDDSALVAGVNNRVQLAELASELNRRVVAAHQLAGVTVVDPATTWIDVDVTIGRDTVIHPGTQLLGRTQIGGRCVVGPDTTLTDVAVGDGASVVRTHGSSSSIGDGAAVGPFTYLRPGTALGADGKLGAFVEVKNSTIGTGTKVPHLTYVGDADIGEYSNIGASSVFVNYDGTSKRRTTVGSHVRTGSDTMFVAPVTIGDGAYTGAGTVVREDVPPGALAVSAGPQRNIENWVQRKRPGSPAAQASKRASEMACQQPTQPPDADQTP
In words: Inhibitors of Mycobacterial Glucosamine-1-phosphate acetyl transferase (GlmU). Secondary screen. On the set-up: species or system Mycobacterium tuberculosis H37Rv.

The target in experiment [12] is T6, Mannose-6-phosphate isomerase (Homo sapiens, UniProt P34949).
T6 sequence (P34949 whole entry): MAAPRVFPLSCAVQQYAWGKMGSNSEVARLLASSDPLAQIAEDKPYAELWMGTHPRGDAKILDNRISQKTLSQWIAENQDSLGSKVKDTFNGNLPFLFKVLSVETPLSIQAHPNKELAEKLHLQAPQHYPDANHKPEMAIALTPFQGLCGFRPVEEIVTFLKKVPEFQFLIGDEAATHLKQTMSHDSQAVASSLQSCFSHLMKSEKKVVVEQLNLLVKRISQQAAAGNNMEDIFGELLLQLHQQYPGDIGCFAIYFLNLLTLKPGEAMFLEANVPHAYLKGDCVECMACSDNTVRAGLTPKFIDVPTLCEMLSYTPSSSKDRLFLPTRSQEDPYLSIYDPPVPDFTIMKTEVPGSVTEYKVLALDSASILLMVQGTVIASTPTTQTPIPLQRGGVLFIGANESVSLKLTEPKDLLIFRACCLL
Nature of the experiment: MPI enzyme activity inhibition – biochemical, fluorescence intensity, coupled assay, primary screen (AID 1209).

T1 sequence (P61956 whole entry): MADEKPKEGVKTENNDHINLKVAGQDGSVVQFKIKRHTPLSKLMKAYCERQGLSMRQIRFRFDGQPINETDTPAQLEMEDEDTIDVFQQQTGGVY

With `c1ccc2c(Nc3nnc(-c4ccncc4)s3)cccc2c1`, the EC50 is > 120 µM (not active) in experiment [1]; 1.59 µM (active) in [2]; 0.196 µM (active) in experiment [3]; > 50 µM (active) in experiment [4]; 2.02 µM (active) in [5].

Turning to `N#Cc1c(O)nc(SCC(=O)N2c3ccccc3Sc3ccccc32)nc1-c1ccccc1`, the results for the IC50 (in experiment [6]; on Large T antigen; in experiment [7]) were 10.9 µM (active), 52.7 µM (active) and 23.1 µM (inactive), respectively. For the same compound, the EC50 on Streptokinase A is given as > 150 µM (not active).

Turning to `COc1cc(C(=O)c2nccc3cc(OC)c(OC)cc23)c([N+](=O)[O-])cc1OC`, the IC50 in experiment [8] is 0.535 µM (active); in experiment [9], 14.8 µM (active); on Caspase-3, > 99 µM (inactive); in experiment [10], > 99 µM (inactive).

In the case of `N=C1S/C(=C\c2ccc(-c3ccccc3C(=O)O)o2)C(=O)N1c1ccc2c(c1)OCO2`, the IC50 was 153 µM (active) in experiment [11] and 11.1 µM (active) in [12].
